In patent US20150141485A1, “PROGNOSIS AND TREATMENT OF LUNG CANCER USING miRNA-135b” (NATIONAL CHENG KUNG UNIVERSITY, priority 2013, published 2015):
Oligonucleotides are written 5' to 3', each unit as a sugar letter and its base; * is a phosphorothioate linkage, no mark a phosphodiester; rarer units and linkages stand in square brackets, end groups in braces. Plain capitals give the bases only. {Chol} = cholesterol; m = 2'-O-methyl

Assays:
CL1-5-F4 cells [1] = assay: Late-stage metastasis model, intravenous injection of tumor cells; assay type: in vivo, mice; details: 3 months after i.v. cell injection, tail vein treatments, P=0.018
Excerpt: CL1-5 cells with scramble antagomir (NC) or miR-135 antagomir (Antago-135b) were intravenously injected to assess the effect of antagomir on late-stage metastasis (n=9). Representative average of visible metastatic lung nodules and H&E staining (right). Data are expressed as the mean±s.e.m. *P<0.05 by Student's t-test.
Animals were housed in a specific-pathgen-free environment in the animal facility of the Institute of Biomedical Sciences, Academia Sinica. All experimental procedures were in compliance with the Academia Sinica IACUC and Council of Agriculture Guidebook for the Care and Use of Laboratory Animals. For intravenous injections of the tumor cells, 1×10^6 cells were suspended in 0.1 mL of phosphate-buffered saline (PBS) and injected into lateral tail vein of SCID mice (10 mice per group). […] For the subcutaneous tumor assay, 1×10^6 CL1-0 cells or 2×10^5 H441 cells were subcutaneously injected in 0.1 mL of PBS into male nude mice (n=8 per group) and allowed to grow for 35 days to reach a volume of 50-200 mm^3 Control antagomir (Scramble) or anti-miR-135b antagomir (antago-135) was intravenously injected at a concentration of 10 μM in 0.1 mL of PBS 4 days after the cells were implanted. […]
The impact of the antagomir during the late stages in metastasis was determined, such as extravasation and colonization. […]

CL1-5-F4 cells [2] = assay: Western blot of endogenous LZTS1; assay type: cell-based, human; details: 100 nM, 48 hours
Method: CL1-5-F4 and UACC-257 cells were administrated with 100 nM of negative control (NC) or antago-135b for 48 hours. Total cell lysates were harvested for western blot analysis.

Hop-62 cells = assay: Migration assay (culture inserts); assay type: cell-based; details: Hop-62 cells transfected 48 hours, vs scramble (NC)
Method: (§1) CL1-5-F4 and Hop-62 cells were transfected with scramble (NC) of miR-135b-specific antagomir (Antago-135b) for 48 hours and the subjected to migration assays (FIG. 2d) and invasion assays (FIG. 2e) as described above. *P<0.05;**P<0.005 by Student's t-test.
For the migration assay, culture inserts (Ibidi, Munich, Germany) were inserted into 60-mm dishes. Next, the cell suspensions were seeded in each culture insert well at a concentration of 2.5×10^4 (CL1-0) or 3×10^4 (CL1-5-F4 and UACC-257) cells/mL. The culture inserts were removed to leave a gap of approximately 500 μm.

CL1-5-F4 cells [3] = assay: Transwell invasion assay; assay type: cell-based, human; details: CL1-5-F4 cells transfected 48 hours, vs scramble (NC)
Method: as §1
CL1-5-F4 cells transfected with plasmids expressing either control or miR-135b sponges were analyzed using in vitro invasion assay. The average number of invading cells obtained in the transwell invasion assay is presented (n=3).
Transwell chambers ([…], BD Falcon, Franklin Lakes, N.J.) were coated with the appropriate amount of Matrigel (BD Biosciences, San Jose, Calif.). Next, 2.5×10^4 cells were suspended in NuSerum-containing media (Gibco BRL, Grand Island N.Y., USA), seeded in the chamber and cultured, Cells that invaded the chamber from top to bottom were fixed with methanol and stained with a solution of propidium iodine (Sigma-Aldrich, St. Louis, Mo.). The propidiumiodine-positive signal was quantified using Analytical Imaging Station software package. Each sample was assayed in triplicate.

[4] = system: H441 human lung adenocarcinoma cells; assay: Subcutaneous xenograft tumor growth; assay type: in vivo, nude mice
Method: Nude mice were subcutaneously injected with 5×10^5 H441 cells. Scramble antagomir (NC) or miR-135b Antagomir (antago-135b) was administered via tail vein injection 2 days after implantation. On day 14 after cancer cell implantation, tumor volume measurements began and were performed every 4 days (n=9). Mean±s.e.m. is shown,*P<0.05 by Student's t-test.
Animals were housed in a specific-pathgen-free environment in the animal facility of the Institute of Biomedical Sciences, Academia Sinica. All experimental procedures were in compliance with the Academia Sinica IACUC and Council of Agriculture Guidebook for the Care and Use of Laboratory Animals. For intravenous injections of the tumor cells, 1×10^6 cells were suspended in 0.1 mL of phosphate-buffered saline (PBS) and injected into lateral tail vein of SCID mice (10 mice per group). At 8 weeks after injection, all mice were killed, and lung surface tumor foci were counted. For the subcutaneous tumor assay, 1×10^6 CL1-0 cells or 2×10^5 H441 cells were subcutaneously injected in 0.1 mL of PBS into male nude mice (n=8 per group) and allowed to grow for 35 days to reach a volume of 50-200 mm^3 Control antagomir (Scramble) or anti-miR-135b antagomir (antago-135) was intravenously injected at a concentration of 10 μM in 0.1 mL of PBS 4 days after the cells were implanted. An example of a miR-135b antagomir is 5′mU(*)mC(*)mAmCmAmUmAmG-mGmAmAmUmGmAmAmAmAmGmCmC(*)mA(*)mU(*)mA(*)(3′-Ch1)3′ (SEQ ID NO:8). The mN indicates 2′-O-methyl base;* indicates phosphorothioate linkage; Ch1 indicates cholesterol.

CL1-5-F4 cells [5] = assay: Soft agar anchorage-independent growth assay; assay type: cell-based, human; details: CL1-5-F4 cells transfected 48 hours, vs NC
Method: CL1-5-F4 and Hop-62 cells were transfected with the negative control (NC) or the Anatago-135b for 48 hours and subjected to soft agar assays. Error bars indicate mean±s.d.,*P<0.05 by Student's t-test.

[6] = antagomir systemically injected 4 days after cancer cell implantation

**Q.** With “5′mU(*)mC(*)mAmCmAmUmAmG-mGmAmAmUmGmAmAmAmAmGmCmC(*)mA(*)mU(*)mA(*)(3′-Ch1)3′ (SEQ ID NO:8) (mU*mC*mAmCmAmUmAmGmGmAmAmUmGmAmAmAmAmGmCmC*mA*mU*mA*{Chol}) [miR-135b antagomir]” as the substance, how does the “metastatic lung nodules vs control group” value (CL1-5-F4 cells [1]) read?
**A.** eight-fold fewer

**Q.** What about the LZTS1 expression (CL1-5-F4 cells [2]) of the same substance?
**A.** significantly increased

**Q.** And the migratory ability (Hop-62 cells)?
**A.** inhibited these changes

**Q.** What about the invasive ability (CL1-5-F4 cells [3]) of the same substance?
**A.** inhibited these changes

**Q.** What about the “growth of H441 cells” value ([4]; antagomir administered before xenograft implantation) of the same substance?
**A.** inhibited

**Q.** What about the xenograft tumor incidence [4, 6] of the same substance?
**A.** significantly reduced

**Q.** What about the xenograft tumor volume [4, 6] of the same substance?
**A.** significantly reduced

**Q.** And the “number of cell colonies (soft agar)” value (CL1-5-F4 cells [5])?
**A.** decreased
